For data set [1], the system named is recreational stimulant abusers. Put plainly: Intravenous abuse potential study, VAS pharmacodynamic assessments. The format is in vivo, human. The source says:
“Drug liking” score, used herein, is the score used to assess the degree that a human participant likes a drug effect at the time the question is being asked (that is, at the moment). It is scored using a 0 to 100 point bipolar visual analogue scale (VAS) anchored in the center with a neutral anchor of “neither like nor dislike” (score of 50), on the left with “strong disliking” (score of 0) and on the right with “strong liking” (score of 100).
“Euphoria” or “Feeling High” score, used herein, is the term to describe the score used to assess the degree that a human participant is high at the time the question is being asked (that is, at the moment). It is scored using a 0 to 100 point unipolar visual analogue scale (VAS) anchored on the left with “Not at All” (score of 0) and on the right with “Extremely” (score of 100).
“Take Drug Again” score, used herein, is the term to describe the score used to assess the degree that a human participant wants to take the drug again, if given the opportunity, based on his/her opinion now, i.e., at the time the question is being asked. It is scored using a 0 to 100 point unipolar visual analogue scale (VAS) anchored on the left with “Definitely Would Not” (score of 0) and on the right with “Definitely Would” (score of 100).
“Overall Drug Liking” score, used herein, is the term to describe the score used to assess the human subject's global perception of drug liking (i.e., the subjective effects over the whole course of the drug experience including any carryover effects). Subjects respond to the statement “Overall, my liking for this drug is.” The question is scored using a 0-100 point bipolar VAS anchored on the left with “Strong Disliking” (score of 0); “Neither Like nor Dislike” (score of 50) in the middle, and anchored on the right with “Strong Liking” (score of 100). This scale has the advantage of the human subject being relatively less affected or unaffected by acute study drug effects (if any) by the time of the assessment.
“Good Effects” score, used herein, is the term to describe the score used to assess the degree that a human participant is feeling good drug effects at the time the question is being asked (that is, at the moment). Subjects respond to the statement “At this moment, I can feel good drug effects.” It is scored using a 0 to 100 point unipolar visual analogue scale (VAS) anchored on the left with “Not at All” (score of 0) and on the right with “Extremely” (score of 100).
Safety assessments were performed throughout the study.

Data set [2] concerns recreational stimulant abusers. The data set is described as follows: Intravenous study, treatment-emergent adverse events. The conditions noted are these: d-methylphenidate treatment vs serdexmethylphenidate. The protocol:
(§1) A study was conducted in humans to assess the intravenous abuse potential of serdexmethylphenidate relative to unconjugated d-methylphenidate and placebo in recreational stimulant abusers. This was a Phase 1, randomized, double-blind study in which serdexmethylphenidate and d-methylphenidate were administered intravenously in recreational stimulant users with a history of non-oral abuse. In Part A of the study, subjects (Cohort 1) participated in a dose-escalation phase to determine the optimal dose of intravenous d-methylphenidate based on tolerability and abuse-related pharmacodynamic assessments. […] The doses of serdexmethylphenidate and d-methylphenidate are equivalent with respect to molar amount of d-methylphenidate. FDA-recommended abuse potential measures and blood samples were collected at different times after dosing. Safety assessments were performed throughout the study.

Data set [3] deals with healthy, nondependent, recreational stimulant users. The data set is described as follows: Oral abuse potential study, VAS pharmacodynamic assessments.
Data set [4] in a line: Intravenous pharmacokinetic study (KP415.A03) in recreational stimulant users. The conditions noted are these: following intravenous administration. The protocol:
as §1

Data set [5] in a line: Intranasal study (KP415.A02), plasma pharmacokinetics. The format is in vivo, human. The following applies: intranasal administration.
Experimental: On dosing days in the Treatment Phase, blood samples were collected for the measurement of the plasma concentrations of SDX, d-methylphenidate (d-MPH), 1-methylphenidate (1-MPH) and ritalinic acid at predose and at 0.25, 0.5, 0.75, 1, 1.5, 2, 3, 4, 5, 6, 7, 8, 9, 10, 12, 16, 24, 36, and 48 hours ±5 minutes after each dose of study drug. […] All VAS pharmacodynamic assessments except Take Drug Again and Overall Drug Liking were performed at 0.25, 0.5, 0.75, 1, 1.5, 2, 3, 4, 5, 6, 7, 8, 10, 12, 24 hours ±5 minutes postdose. In addition, predose assessments of Feeling High, and Drowsiness/Alertness were collected. The Take Drug Again and Overall Drug Liking VAS assessments were performed at 12 and 24 hours ±5 minutes postdose. Ease of Nasal Insufflation scores were completed within 5 minutes after the completion of each intranasal drug administration during the Treatment Phase.
The mark [6] stands for this setting: Focalin XR 80 mg, phentermine HCl 60 mg, bipolar VAS.
The mark [7] stands for this setting: Focalin XR 80 mg, phentermine HCl 60 mg, unipolar VAS.
The mark [8] stands for this setting: phentermine HCl 60 mg vs SDX Cl 120 mg.
Where [9] appears, read: phentermine HCl 60 mg vs SDX Cl 240 mg.
Setting [10] is: phentermine HCl 60 mg vs placebo.

Where a name gives a salt, the structure may show the parent alone.

For `COC(=O)[C@H](c1ccccc1)[C@H]1CCCCN1` [d-methylphenidate, methyl (R)-2-phenyl-2-((R)-piperidin-2-yl)acetate, reference compound], the “Drug Liking Emax, statistical analysis vs. placebo” value in data set [1] (d-MPH HCl 15 mg vs placebo (study validity)) is recorded as “significantly higher”. The “Typical stimulant-related Adverse Events (euphoric mood, hypervigilance, increased heart rate)” value in data set [2] was “more common”.

As to `CC(C)(N)Cc1ccccc1` [phentermine hydrochloride, reference compound], in data set [3] (setting [6]), the “Drug Liking Emax, Median” value came out at 84.0; the “Feeling Alert/Drowsy Emax, Median” value was found to be 84.0; the “Overall Drug Liking Emax, Median” value is on record as 77.0; the “Take Drug Again Emax, Median” value was 75.0. For the same compound, in data set [3] (setting [7]), the “Any Effects Emax, Median” value amounted to 74.0; the “Bad Effects Emax, Median” value is listed as 7.0; the “Feeling High Emax, Median” value was 76.0; the “Good Effects Emax, Median” value was found to be 75.0. Further, in data set [3] (setting [8]), the “Mean Difference Any Effects Emax, D vs A” value stood at 37.4; the “Mean Difference Bad Effects Emax, D vs A” value was 11.9; the “Mean Difference Feeling Alert/Drowsy Emax, D vs A” value is on record as 15.7; the “Mean Difference Feeling High Emax, D vs A” value amounted to 36.0. Moreover, in data set [3] (setting [8]), the “Mean Difference Good Effects Emax, D vs A” value is given as 35.5; the “Mean Difference Overall Drug Liking Emax, D vs A” value was 14.9; the “Mean Difference Take Drug Again Emax, D vs A” value was determined as 14.9. The “Mean Difference Drug Liking Emax, D vs A” value in data set [3] (phentermine HCl 60 mg vs SDX Cl 120 mg, margin 10) is recorded as 15.5. Moreover, in data set [3] (setting [9]), the “Mean Difference Any Effects Emax, D vs B” value was found to be 28.0; the “Mean Difference Bad Effects Emax, D vs B” value is given as 4.6; the “Mean Difference Feeling Alert/Drowsy Emax, D vs B” value is 12.2; the “Mean Difference Feeling High Emax, D vs B” value came out at 27.7. In data set [3] (setting [9]), the “Mean Difference Good Effects Emax, D vs B” value came to 30.2; the “Mean Difference Overall Drug Liking Emax, D vs B” value is 15.3; the “Mean Difference Take Drug Again Emax, D vs B” value worked out at 15.4. In data set [3] (phentermine HCl 60 mg vs SDX Cl 240 mg, margin 10), the “Mean Difference Drug Liking Emax, D vs B” value is on record as 14.0. Besides, in data set [3] (setting [10]), the “Bad Effects Emax, median difference D vs E” value is 8.0c; the “Mean Difference Any Effects Emax, D vs E” value worked out at 48.5; the “Mean Difference Feeling Alert/Drowsy Emax, D vs E” value stood at 23.5; the “Mean Difference Feeling High Emax, D vs E” value worked out at 46.4. Further, in data set [3] (setting [10]), the “Mean Difference Good Effects Emax, D vs E” value came to 47.6; the “Mean Difference Overall Drug Liking Emax, D vs E” value came to 18.6; the “Mean Difference Take Drug Again Emax, D vs E” value is 17.1. For the same compound, the “Mean Difference Drug Liking Emax, D vs E” value in data set [3] (phentermine HCl 60 mg vs placebo, margin 10, hydrochloride) came out at 22.3. In data set [3] (phentermine HCl 60 mg vs placebo, margin 10, listed as Phentermine, hydrochloride), the “Mean Difference Drug Liking Emax, D vs E” value is given as “statistically significantly higher”.

With `COC(=O)[C@H](c1ccccc1)[C@H]1CCCCN1C(=O)OC[n+]1cccc(C(=O)N[C@@H](CO)C(=O)O)c1` [serdexmethylphenidate], in data set [4], the “conversion of serdexmethylphenidate to d-methylphenidate” value is reported as “very little conversion”. Also, in data set [1] (SDX Cl 30 mg vs placebo, bipolar VAS), the “Median Difference Drug Liking Emax, A vs C” value is given as “not significantly different”. Also, the “Median Difference Drug Liking Emax, B vs A” value in data set [1] (d-MPH HCl 15 mg vs SDX Cl 30 mg, bipolar VAS) is recorded as “significantly lower”. Moreover, in data set [1] (subjects with a history of non-oral abuse of stimulants), the “effects on multiple abuse-related endpoints vs intravenous placebo” value is recorded as “statistically similar”. For the same compound, the “conversion of SDX to the active d-methylphenidate when snorted” value in data set [5] was “not readily or effectively converted”.
